The values that follow are results of earlier work, collected in US20240207481A1, “KIT OF GEL-FORMING SOLUTIONS INTENDED FOR PREPARATION OF HYDROGEL BASED ON COVALENTLY CROSSLINKED HYDROXYPHENYL DERIVATIVE OF HYALURONAN FOR PREVENTION OF POSTOPERATIVE COMPLICATIONS RELATED TO FORMATION OF COLORECTAL ANASTOMOSIS, USE OF KIT, METHOD OF PREPARATION OF HYDROGEL AND USE THREREOF” (CONTIPRO A.S., priority 2020, published 2024).

Each structure is given as a SMILES string.

On to `Oc1cc(Cl)ccc1Oc1ccc(Cl)cc1Cl` [Triclosan, 2,4,4′-trichloro-2′-hydroxydiphenyl ether], for which the solubility in water result is listed as “poorly soluble”. The “solubility in polar organic solvents” value (ethanol, chloroform, isopropanol) is “well soluble”.
